In patent US9718821B2, “Pyridopyrimidinone inhibitors of kinases” (AbbVie Inc., priority 2012, dated 2017):

These compounds were tested against T1, GST-tagged-Wee1 kinase (Homo sapiens, UniProt P30291) (assay: Wee1 time-resolved fluorescence equilibrium binding assay (displacement of Oregon Green-labeled ATP-competitive kinase probe)). Details: enzyme binding data; GST-tagged-Wee1 kinase 2 nM, fluorescent probe 300 nM, inhibitor 0.003 to 10 micromolar, 1 hour incubation; read-out: Wee-1 binding (Ki nM).
T1 construct: purchased Carnabio 05-177
T1 sequence (P30291 whole entry): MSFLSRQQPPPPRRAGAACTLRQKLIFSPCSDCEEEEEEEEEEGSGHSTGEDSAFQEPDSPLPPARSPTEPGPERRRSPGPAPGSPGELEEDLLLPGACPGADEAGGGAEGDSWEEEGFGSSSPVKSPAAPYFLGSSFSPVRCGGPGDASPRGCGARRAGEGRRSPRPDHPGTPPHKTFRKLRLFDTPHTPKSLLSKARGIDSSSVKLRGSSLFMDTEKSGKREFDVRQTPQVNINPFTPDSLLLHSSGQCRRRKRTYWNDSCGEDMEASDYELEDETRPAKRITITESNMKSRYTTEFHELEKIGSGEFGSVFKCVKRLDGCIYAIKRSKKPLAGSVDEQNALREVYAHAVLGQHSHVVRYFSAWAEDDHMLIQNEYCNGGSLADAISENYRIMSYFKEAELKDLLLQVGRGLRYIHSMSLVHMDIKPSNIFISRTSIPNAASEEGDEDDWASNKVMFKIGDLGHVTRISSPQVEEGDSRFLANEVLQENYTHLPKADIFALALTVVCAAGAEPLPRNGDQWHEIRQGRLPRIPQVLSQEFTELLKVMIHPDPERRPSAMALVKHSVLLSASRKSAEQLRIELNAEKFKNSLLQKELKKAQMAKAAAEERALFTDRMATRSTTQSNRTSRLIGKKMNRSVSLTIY
How it was run: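 Competitive TR-fluorescence equilibrium binding with GST-Wee1; inhibitors displace a rapidly reversible Oregon Green-labelled ATP-competitive probe. Ki values derived from probe displacement.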

Row | Compound | Ki
1 | C=Cc1cn(-c2c(Cl)cccc2Cl)c(=O)c2cnc(Nc3ccc4c(c3)CC(N(C)C)C4)nc12 (stereo not drawn) [Example 49, 6-(2,6-dichlorophenyl)-2-{[2-(dimethylamino)-2,3-dihydro-1H-inden-5-yl]amino}-8-ethenylpyrido[4,3-d]pyrimidin-5(6H)-one] | 0.3 nM
2 | Cc1cn(-c2c(Cl)cccc2Cl)c(=O)c2cnc(Nc3ccc(NCCN(C)C)cc3)nc12 [Example 130, 6-(2,6-dichlorophenyl)-2-[(4-{[2-(dimethylamino)ethyl]amino}phenyl)amino]-8-methylpyrido[4,3-d]pyrimidin-5(6H)-one] | 0.3 nM
3 | Cc1cn(-c2c(F)cccc2Cl)c(=O)c2cnc(Nc3ccc4c(c3)CCNC4)nc12 [Example 72, 6-(2-chloro-6-fluorophenyl)-8-methyl-2-(1,2,3,4-tetrahydroisoquinolin-6-ylamino)pyrido[4,3-d]pyrimidin-5(6H)-one] | 5.1 nM
